Where only a bound is given, the exact number is not on record here.

This is an account of results in ChEMBL document CHEMBL1139723, “Novel imidazole-based combretastatin A-4 analogues: evaluation of their in vitro antitumor activity and molecular modeling study of their binding to the colchicine site of tubulin” (Bioorg Med Chem Lett, 2006).

A short description of series [1]: Cytotoxicity against NCI-H460 cells. It counts as cell-based. Particulars: human.
Series [2] in a line: Cytotoxicity against NCI60 cell line. Particulars: human. It counts as cell-based.
Series [3] in a line: Cytotoxicity against MDR HCT15 cells. The format is cell-based. Particulars: human, MDR HCT-15 cells.
The next series has as its system HCC 2998. As to the kind of experiment: Tumor growth inhibition against HCC2998 cells. It counts as functional. Particulars: Homo sapiens, read-out: Log TGI (converted).
The next series relates to HL-60. Briefly: Tumor growth inhibition against HL60 cells. It counts as functional. The note with it: Homo sapiens, read-out: Log TGI (converted).
Series [4] in a line: Tumor growth inhibition of […] cells xenografted in immunodeficient mouse at 150 mg/kg/day after 25 days. Particulars: Homo sapiens, 600 h. The format is functional.

For orientation: GI50 means the concentration at which growth is held to half of that of the control. A high value points to less potent growth inhibition. As usually defined, the pGI50 is the negative decadic logarithm of the GI50, by convention in mol/L. Read a low pGI50 as a large GI50. Turning to `COc1ccc(-c2nccn2-c2cc(OC)c(OC)c(OC)c2)cc1`, in series [1], it took 1580 nM to inhibit growth by half (GI50). For the same molecule, in series [2], the “Log TGI” value was -4.16 and the negative logarithm of the GI50 (pGI50) is recorded as 5.34. In series [3], this molecule yielded a GI50 of 1150 nM.
In the same order, the values of `COc1ccc(-c2cncn2-c2ccc(OC)cc2)cc1` are 15500 nM, -4.32, 4.8 and 19500 nM.
What is called TGI is the concentration at which net growth stops. In the case of `COc1cc(-n2cncc2-c2ccc3ccccc3c2)cc(OC)c1OC`, the concentration for total growth inhibition (TGI) in the series with HCC 2998 is 29.5 nM. In series [1], this molecule showed a GI50 of 18 nM. For the same molecule, in series [2], the “Log TGI” value was -4.4 and the pGI50 was determined as 7.14. For the same molecule, growth in series [3] was halved (GI50) at 17 nM.
The molecule `COc1cc(-c2nccn2-c2ccc3ccccc3c2)cc(OC)c1OC` had a concentration for 50% growth inhibition (GI50) in series [1] of 21 nM. Moreover, in series [2], the “Log TGI” value is listed as -4.8 and the pGI50 amounted to 6.86. In series [3], this molecule returned a GI50 of 22 nM.
Molecule `COc1cc(-n2ccnc2-c2ccc3ccccc3c2)cc(OC)c1OC` returned a concentration for 50% growth inhibition (GI50) in series [1] of 37 nM. Also, in series [2], the “Log TGI” value is listed as -4.68 and the pGI50 turned out to be 6.82. Further, in series [3], the 50% growth inhibitory concentration (GI50) is 51 nM.
In the same order, the values of `COc1ccc(-n2ccnc2-c2cc(OC)c(OC)c(OC)c2)cc1` are 2340 nM, -4.32, 5.45 and 1150 nM.
Regarding `COc1ccc(-c2cncn2-c2cc(OC)c(OC)c(OC)c2)cc1F`, the GI50 in series [1] and in series [3] was below 10 nM throughout. Besides, in series [2], the “Log TGI” value is given as -4.51. The same molecule gave a pGI50 in series [2] of 7.4. Besides, in the series on HL-60, the TGI is below 28.8 nM.
What is called inhibition in vivo is the change of the read-out against control, counted positive when it falls. Lower therefore signals little suppression. Turning to `COc1ccc(-c2cncn2-c2cc(OC)c(OC)c(OC)c2)cc1`, the GI50 came to 363 nM in series [1] and 170 nM in series [3]. In addition, the “Log TGI” value in series [2] was -4.71. This molecule came in with a negative-log GI50 (pGI50) in series [2] of 6.59. In series [4], this molecule registered an inhibition in vivo at 150 mg/kg/day of 52%.
Molecule `COc1ccc(-c2nccn2-c2ccc(OC)cc2)cc1` had a concentration for 50% growth inhibition (GI50) in series [1] of 17800 nM. Also, in series [2], the “Log TGI” value was -4.19 and the pGI50 is 4.76. This molecule showed a GI50 in series [3] of 22900 nM.
Turning to `COc1ccc(/C=C\c2cc(OC)c(OC)c(OC)c2)cc1O` [COMBRETASTATIN A4], in series [1], the 50% growth inhibitory concentration (GI50) is below 10 nM. Further, in series [2], the “Log TGI” value was -5.03 and the negative logarithm of the GI50 (pGI50) amounted to 7. Moreover, the concentration for 50% growth inhibition (GI50) in series [3] is below 10 nM.
